Assay results: publication PMC2642983 (AIDS (London, England), 2009)
Where two headings read alike, the source gives them in different places. Marks after values point to notes of the source that are not given here.

How the values were obtained:
[1] = Population pharmacokinetic modelling; assay type: in vivo, human; conditions: for CSF penetration (% of plasma concentration): modeled estimate
HIV RNA in the CSF [2] = experiment: Detectable HIV RNA in CSF by CSF atazanavir detectability; assay type: in vivo
wild-type HIV = conditions: estimated with no protein (protein-free medium); cited from earlier work
plasma proteins = conditions: no reference given; cited from earlier work
[3] = cited from earlier work
[4] = for CSF concentrations fold lower than plasma concentrations: even with ritonavir boosting
HIV RNA in the CSF [5] = conditions: over 3 weeks, all 13 participants receiving monotherapy; cited from earlier work
[6] = atazanavir with ritonavir, listed as atazanavir

With `COC(=O)N[C@H](C(=O)N[C@@H](Cc1ccccc1)[C@@H](O)CN(Cc1ccc(-c2ccccn2)cc1)NC(=O)[C@@H](NC(=O)OC)C(C)(C)C)C(C)(C)C` [Atazanavir, atazanavir] as the compound, how does the “Intersubject variability of ke” value ([1]; atazanavir with ritonavir) read?
The value was 17%.

And the “Residual variability of CSF concentrations” value ([1]; atazanavir with ritonavir)?
Its value is 26%.

And the “Residual variability of plasma concentrations” value ([1]; atazanavir with ritonavir)?
Its value is 49%.

What about the oral clearance ([1]; atazanavir with ritonavir, corresponds to ke and Vd/F) of the same compound?
Its oral clearance is 9.4 L/h.

What about the “Residual variability of CSF concentrations” value [1, 6] of the same compound?
The value was 26%.

What about the “Residual variability of plasma concentrations” value [1, 6] of the same compound?
The value was 49%.

And the “CSF penetration (% of plasma concentration)” value ([1]; atazanavir with ritonavir)?
The value was 0.0074 (0.74%).

What about the “CSF penetration (% of plasma concentration)” value [1, 6] of the same compound?
The value was 0.74%.

What about the Vd/F ([1]; human, plasma, oral) of the same compound?
The Vd/F was 209 L.

What about the half-life ([1]; human, plasma, oral) of the same compound?
The half-life was 15 h.

And the k el ([1]; human, plasma, oral)?
Its k el is 1.25e-05 s⁻¹.

And the “participants with measurable CSF HIV RNA” value (HIV RNA in the CSF [2]; 12/60 participants with more than 5 ng/ml atazanavir in the CSF, P = 0.13)?
The value was 20%.

And the “participants with detectable (>50 copies/ml) HIV RNA in the CSF” value (HIV RNA in the CSF [2]; seven of 19 participants with no measurable atazanavir in the CSF)?
Its value is 37%.

And the “wild-type IC50” value (wild-type HIV)?
Its value is 1 ng/mL.

And the “bound to plasma proteins” value (plasma proteins)?
The value was 86%.

What about the “free (not bound to plasma proteins)” value (plasma proteins) of the same compound?
The value was 14%.

And the “atazanavir CSF concentrations, average % of plasma concentrations” value ([3]; in vivo)?
Its value is 0.9%.

And the “CSF atazanavir concentrations as % of plasma concentrations” value ([3]; seven HIV-infected patients)?
The value was “approximately 1%”.

What about the “median (IQR) plasma concentration” value (11 samples with no detectable CSF atazanavir but measurable plasma atazanavir) of the same compound?
Its value is 315 (280–432) ng/ml.

And the “estimated free concentration of atazanavir in plasma” value (14% of 1510 ng/ml)?
The value was “approximately 210 ng/ml”.

What about the “plasma samples with undetectable atazanavir” value (<0.13 μg/ml, 17 of 149 samples) of the same compound?
The value was 11%.

And the “Median (interquartile range) plasma atazanavir concentration” value (atazanavir alone, without ritonavir)?
Its value is 523 (283–1344) ng/ml.

And the “median (IQR) plasma concentration” value (corresponding to the 60 CSF samples with detectable atazanavir)?
The value was 1743 (925–2919) ng/ml.

And the “Median (interquartile range) plasma atazanavir concentration” value (with concomitant ritonavir)?
Its value is 1278 (525–2265) ng/ml.

And the “Median (range) plasma concentration” value (with ritonavir 100 mg daily, 130 plasma samples)?
The value was 1278 (<128–5295) ^* ng/ml.

What about the “Median (range) plasma concentration” value (without ritonavir, 18 plasma samples, 300 or 400 mg atazanavir daily) of the same compound?
The value was 523 (<128–6200) ng/ml.

And the “CSF specimens with concentrations near the protein-free IC50 (<5 ng/ml)” value ([4]; 11/67, after excluding probable nonadherence)?
Its value is 16%.

What about the “CSF samples with undetectable atazanavir” value ([4]; <5 ng/ml, 19 of 79 samples) of the same compound?
The value was 24%.

What about the “observed CSF concentrations” value ([4]; as summarised in the discussion) of the same compound?
Its value is 10 ng/mL.

What about the “CSF concentrations fold lower than plasma concentrations” value [4] of the same compound?
The value was “about 100 fold”.

And the “CSF concentrations fold lower than plasma concentrations” value ([4]; listed as atazanavir)?
The value was 100 fold.

What about the Kp ([4]; human, CSF, oral) of the same compound?
The Kp was less than 0.01.

What about the “Median (interquartile range) CSF concentration” value ([4]; with ritonavir) of the same compound?
Its value is 10.3 (<5–21.1) ng/ml.

And the “Median (range) CSF concentration” value ([4]; with ritonavir, 68 CSF samples)?
Its value is 10.3 (<5–38) ^† ng/ml.

What about the “Median (interquartile range) CSF concentration” value ([4]; without ritonavir) of the same compound?
Its value is 7.9 (6.6–22) ng/ml.

What about the “Median (range) CSF concentration” value ([4]; without ritonavir, 11 CSF samples) of the same compound?
The value was 7.9 (<5–40) ng/ml.

With lopinavir/ritonavir as the compound, how does the “change in CSF HIV RNA levels” value (HIV RNA in the CSF [5]) read?
The value was “substantial declines in CSF HIV RNA levels”.
